The values that follow come from patent US9145351B2, “Azole derivatives, methods for producing the same, intermediate thereof, agro-horticultural agents” (KUREHA CORPORATION, priority 2009, dated 2015).

Format in all cases: cell-based
The subject of test [1] is Pseudocercoporella herpotrichoides. Description: Plate medium fungicidal assay, wheat eye spot P.h (Experimental Example 5). The procedure: (§1) In this Experimental Example, the fungicidal effects of the inventive compounds on various phytopathogenic fungi for plants and hazardous microorganism for industrial materials were examined by the methods described below. Each inventive compound was dissolved in 2 ml of dimethyl sulfoxide. 0.6 ml of this solution was added to 60 nil of a PDA medium (potato dextrose agar medium) at about 60 degrees C., which was mixed thoroughly in a 100-ml conical flask, and poured into a dish, where it was solidified, thereby obtaining a plate medium containing the inventive compound at 50 mg/L and 5 mg/L. On the other hand, a subject microorganism previously cultured on a plate medium was cut out using a cork borer whose diameter was 4 mm, and inoculated to the test compound-containing plate medium described above. […] The growth degree of the microorganism on the test compound-containing plate medium thus observed was compared with the growth degree of the microorganism in the untreated group, and % mycelial growth inhibition was calculated by the following equation. R=100(dc−dt)/dc wherein R=% mycelial extension inhibition, dc=flora diameter in untreated plate, dt=flora diameter in treated plate. The results obtained as described above were evaluated as one of the 5 grades according to the following criteria. […] Wheat eye spot (Pseudocercoporella herpotrichoides) P.h

A further test relates to Fusarium graminearum. Description: microbe, parasite or virus in culture.
A further test deals with Giberella fujikuroi. Description: Plate medium fungicidal assay, rice bakanae disease G.f (Experimental Example 5). The procedure: as §1, with “Rice bakanae disease (Giberella fujikuroi) G.f” for “Wheat eye spot (Pseudocercoporella herpotrichoides) P.h”
In the next test the test system is Sclerotinia sclerotiorum. Description: Plate medium fungicidal assay, Sclerotinia rot S.s (Experimental Example 5). On the procedure: as §1, with “Sclerotinia rot (Sclerotinia sclerotiorum) S.s” for “Wheat eye spot (Pseudocercoporella herpotrichoides) P.h”
The test system of another test is Botritis cinerea. The test is described as follows: Plate medium fungicidal assay, gray mold B.c (Experimental Example 5). The procedure: as §1, with “Gray mold (Botritis cinerea) B.c” for “Wheat eye spot (Pseudocercoporella herpotrichoides) P.h”
A further test relates to Rhynchosporium secalis. Description: Plate medium fungicidal assay, barley leaf blotch R.sec (Experimental Example 5). The procedure:
as §1, with “Barley leaf blotch (Rhynchosporium secalis) R.sec” for “Wheat eye spot (Pseudocercoporella herpotrichoides) P.h”

The mark [2] stands for this setting: plate medium containing compound at 5 mg/L.
Setting [3] is: plate medium containing compound at 50 mg/L.
Where [4] appears, read: Fusarium graminearum, read-out: growth inhibition grade F.g.

Molecules are shown by their SMILES.

Take `C[C@@]1(CCl)CC[C@@H](Cc2ccc(Cl)cc2)[C@]1(O)Cn1cncn1` (racemic) [Compound I-101]: the “Growth inhibition grade, P.h” value in test [1] (setting [2]) and in test [1] (setting [3]) was 5 (% Mycerial growth inhibition of 80% or higher) throughout. In addition, the “Growth inhibition grade, F.g” value with Fusarium graminearum (setting [2]) and in the test on Fusarium graminearum (setting [3]) was 5 (% Mycerial growth inhibition of 80% or higher) throughout. For the same compound, the “Growth inhibition grade, G.f” value in the test on Giberella fujikuroi (setting [2]) and with Giberella fujikuroi (setting [3]) was 5 (% Mycerial growth inhibition of 80% or higher) throughout. Besides, the “Growth inhibition grade, S.s” value in the test on Sclerotinia sclerotiorum (setting [2]) and in the test with Sclerotinia sclerotiorum (setting [3]) was 5 (% Mycerial growth inhibition of 80% or higher) in each case. The “Growth inhibition grade, B.c” value in the test with Botritis cinerea (setting [2]) and in the test with Botritis cinerea (setting [3]) was 5 (% Mycerial growth inhibition of 80% or higher) each time. Further, the “Growth inhibition grade, R.sec” value in the test with Rhynchosporium secalis (setting [2]) and in the test with Rhynchosporium secalis (setting [3]) was 5 (% Mycerial growth inhibition of 80% or higher) in each case.
In general, inhibition refers to the percentage by which the read-out fell short of the control. As for `C[C@@]1(CCCl)CC[C@@H](Cc2ccc(Cl)cc2)[C@]1(O)Cn1cncn1` (racemic) [Compound I-104, (1RS,2SR,5SR)-5-(4-chlorobenzyl)-2-(2-chloroethyl)-2-methyl-1-(1H-1,2,4-triazol-1-ylmethyl)cyclopentanol], the inhibition at 5 µg/mL in test [1] (plate medium, 5 mg/L, read-out: growth inhibition grade P.h) is more than 80%; in the test on Fusarium graminearum (setting [4]) it was more than 80%; in the test on Giberella fujikuroi (plate medium, 5 mg/L, read-out: growth inhibition grade G.f), more than 80%; in the test with Sclerotinia sclerotiorum (Sclerotinia sclerotiorum, plate medium, 5 mg/L, read-out: growth inhibition grade S.s) it was more than 80%; in the test with Botritis cinerea (plate medium, 5 mg/L, read-out: growth inhibition grade B.c), more than 80%; in the test on Rhynchosporium secalis (Rhynchosporium secalis, plate medium, 5 mg/L, read-out: growth inhibition grade R.sec), more than 80%. Moreover, the inhibition at 50 µg/mL in test [1] (plate medium, 50 mg/L, read-out: growth inhibition grade P.h) is more than 80%; with Fusarium graminearum (setting [4]), more than 80%; in the test with Giberella fujikuroi (plate medium, 50 mg/L, read-out: growth inhibition grade G.f), more than 80%; with Sclerotinia sclerotiorum (Sclerotinia sclerotiorum, plate medium, 50 mg/L, read-out: growth inhibition grade S.s) it was more than 80%; with Botritis cinerea (plate medium, 50 mg/L, read-out: growth inhibition grade B.c), more than 80%; in the test on Rhynchosporium secalis (Rhynchosporium secalis, plate medium, 50 mg/L, read-out: growth inhibition grade R.sec), more than 80%.
In the case of `C[C@@]1(CCl)CC[C@@H](Cc2cccc(Cl)c2)[C@]1(O)Cn1cncn1` (relative stereo) [Compound I-174], the “Growth inhibition grade, P.h” value in test [1] (plate medium, 5 mg/L) was 5 (% Mycerial growth inhibition of 80% or higher); in test [1] (plate medium, 50 mg/L) it was 5 (% Mycerial growth inhibition of 80% or higher). Besides, the “Growth inhibition grade, F.g” value in the test with Fusarium graminearum (plate medium, 5 mg/L) was 5 (% Mycerial growth inhibition of 80% or higher); in the test with Fusarium graminearum (plate medium, 50 mg/L) it was 5 (% Mycerial growth inhibition of 80% or higher). Also, the “Growth inhibition grade, G.f” value in the test on Giberella fujikuroi (plate medium, 5 mg/L) is on record as 5 (% Mycerial growth inhibition of 80% or higher); in the test on Giberella fujikuroi (plate medium, 50 mg/L) it was 5 (% Mycerial growth inhibition of 80% or higher). Also, the “Growth inhibition grade, S.s” value is reported as 5 (% Mycerial growth inhibition of 80% or higher) with Sclerotinia sclerotiorum (plate medium, 5 mg/L) and 5 (% Mycerial growth inhibition of 80% or higher) in the test on Sclerotinia sclerotiorum (plate medium, 50 mg/L). In addition, the “Growth inhibition grade, B.c” value in the test with Botritis cinerea (plate medium, 5 mg/L) is recorded as 5 (% Mycerial growth inhibition of 80% or higher); in the test on Botritis cinerea (plate medium, 50 mg/L), 5 (% Mycerial growth inhibition of 80% or higher). The “Growth inhibition grade, R.sec” value is listed as 5 (% Mycerial growth inhibition of 80% or higher) with Rhynchosporium secalis (plate medium, 5 mg/L) and 5 (% Mycerial growth inhibition of 80% or higher) in the test with Rhynchosporium secalis (plate medium, 50 mg/L).
Turning to `O[C@]1(Cn2cncn2)[C@H](Cc2ccc(Cl)cc2)CCC1(CCl)CCl` (relative stereo) [Compound I-203, cis-5-(4-chlorobenzyl)-2,2-bis(chloromethyl)-1-(1H-1,2,4-triazol-1-yl)methylcyclopentanol], the “Growth inhibition grade, P.h” value is reported as 5 (% Mycerial growth inhibition of 80% or higher) in test [1] (plate medium, 5 mg/L) and 5 (% Mycerial growth inhibition of 80% or higher) in test [1] (plate medium, 50 mg/L). For the same compound, the “Growth inhibition grade, F.g” value with Fusarium graminearum (plate medium, 5 mg/L) is listed as 5 (% Mycerial growth inhibition of 80% or higher); in the test on Fusarium graminearum (plate medium, 50 mg/L) it was 5 (% Mycerial growth inhibition of 80% or higher). Besides, the “Growth inhibition grade, G.f” value in the test on Giberella fujikuroi (plate medium, 5 mg/L) was 5 (% Mycerial growth inhibition of 80% or higher); in the test with Giberella fujikuroi (plate medium, 50 mg/L), 5 (% Mycerial growth inhibition of 80% or higher). The “Growth inhibition grade, S.s” value is 5 (% Mycerial growth inhibition of 80% or higher) in the test on Sclerotinia sclerotiorum (plate medium, 5 mg/L) and 5 (% Mycerial growth inhibition of 80% or higher) in the test with Sclerotinia sclerotiorum (plate medium, 50 mg/L). Further, the “Growth inhibition grade, B.c” value was 5 (% Mycerial growth inhibition of 80% or higher) in the test with Botritis cinerea (plate medium, 5 mg/L) and 5 (% Mycerial growth inhibition of 80% or higher) in the test on Botritis cinerea (plate medium, 50 mg/L). Moreover, the “Growth inhibition grade, R.sec” value in the test on Rhynchosporium secalis (plate medium, 5 mg/L) was 5 (% Mycerial growth inhibition of 80% or higher); with Rhynchosporium secalis (plate medium, 50 mg/L), 5 (% Mycerial growth inhibition of 80% or higher).
